Patent publication US20220016277A1, “MACROCYCLIC COMPLEXES OF RADIONUCLIDES AND THEIR USE IN RADIOTHERAPY OF CANCER” (Cornell University, priority 2018, published 2022)

Assay: Organ distribution of ^225Ac complexes following intravenous injection in mice
Format: in vivo, C57BL/6 mice
Description: In Vivo Biodistribution of ^225Ac Complexes of Macropa and DOTA. All experiments were approved by the Institutional Animal Care Committee (IACC) of the University of British Columbia and were performed in accordance with the Canadian Council on Animal Care Guidelines. A total of 9 female C57BL/6 mice (6-8 weeks old, 20-25 g) were used for the biodistribution study of each radiometal complex, n=3 for each time point.
Macropa (100 μL of a 1 mg/mL solution in NH4OAc) was diluted with 387 μL of NH4OAc (1 M, pH 7), and an aliquot (203 μL) of ^225Ac(NO3)3 (˜157 kBq) was then added; the pH of this solution was adjusted to 6.5-7 by the addition of 1 M NaOH (210 μL, trace metal grade). After 5 min at ambient temperature, the reaction solution was analyzed by TLC (0.4 M pH 4 sodium citrate as the eluent), which confirmed >95% radiochemical yield. The reaction was allowed to proceed overnight, and the radiochemical yield was again confirmed to be >95% the following morning. At this time, mice were anesthetized by 2% isoflurane, and approximately 100 μL (10-15 kBq) of the [^225Ac(macropa)]^+ complex were injected into the tail vein of each mouse. After injection, mice were allowed to recover and roam freely in their cages, and were euthanized by CO2 inhalation at 15 min, 1 h, or 5 h (n=3 at each time point) post-injection. Blood was collected by cardiac puncture and placed into an appropriate test tube for scintillation counting. Tissues collected included heart, liver, kidneys, lungs, small intestine, large intestine, brain, bladder, spleen, stomach, pancreas, bone, thyroid, tail, urine, and feces. Tissues were weighed and then counted with a calibrated gamma counter (Packard, Cobra II model 5002) using three energy windows: 60-120 keV (window A), 180-260 keV (window B), and 400-480 keV (window C). Counting was performed both immediately after sacrifice and after 7 days; counts were decay corrected from the time of injection and then converted to the percentage of injected dose (% ID) per gram of tissue (% ID/g). […]
The biodistribution studies of [^225Ac(DOTA)]^− and ^225Ac(NO3)3 were carried out as described above for [^225Ac(macropa)]^+, with the following modifications. [^225Ac(DOTA)^− was prepared by adding ^225Ac(NO3)3 (338 μL, 1.1 MBq) to a solution of DOTA (100 μg, 20 mg/mL in H2O) in NH4OAc (467 μL, 0.15 M, pH 7). The pH of the solution was adjusted to 7 using NH4OAc (150 μL, 1 M, pH 7) and the solution was heated at 85° C. for 45 min. RCY >99% was confirmed by TLC as described above. [^225Ac(DOTA)]^− was diluted with saline to a final concentration of 0.05 MBq/100 μL, and 100 μL were injected into each mouse. ^225Ac(NO3)3 (˜58 μL, 0.4 MBq) was diluted and injected in the same manner as [^225Ac(DOTA)]^−. One mouse that was to be euthanized at the 5 h time point in the [^225Ac(DOTA)]^− study died shortly after injection. In the same manner, one mouse that was to be euthanized at the 1 h time point in the ^225Ac(NO3)3 study died.
The in vivo stability [^225Ac(macropa)]^+ was examined by comparing its biodistribution to those of ^225Ac(NO3)3 and [^225Ac(DOTA)]^−. C57BL/6 mice were injected via tail vein with 10-50 kBq of each radiometal complex and were sacrificed after 15 min, 1 h, or 5 h. The amount of ^225Ac retained in each organ was quantified by gamma counting and reported as the percent of injected dose per gram of tissue (% ID/g). The results of these studies are compiled in Tables 1-3. Inadequate stability of an ^225Ac complex leading to the loss of radioisotope in vivo is manifested by the accumulation of ^225Ac in the liver, spleen, and bone of mice.^[11,12,32] […] The biodistribution profile of [^225Ac(macropa)]^+ (FIG. 3B) differs markedly from that of ^225Ac(NO3)3. […] Its biodistribution profile was similar to that of [^225Ac(DOTA)]^− (FIG. 3C), which has been previously shown to retain ^225Ac^3+ in vivo.^[7]

[1] = 1 h post i.v. injection, energy window B (180-260 keV)
[2] = 1 h post i.v. injection, energy window C (400-480 keV)
[3] = 5 h post i.v. injection, energy window A (60-120 keV)
[4] = 5 h post i.v. injection, energy window B (180-260 keV)
[5] = 5 h post i.v. injection, energy window C (400-480 keV)
[6] = C57BL/6 mice, i.v., 15 min to 5 h

O=C([O-])c1cccc(CN2CCOCCOCCN(Cc3cccc(C(=O)[O-])n3)CCOCCOCC2)n1.[225Ac+3] [[^225Ac(macropa)]^+]
Organ distribution: lungs [1]: 0.54 % ID/g
Organ distribution: pancreas [1]: 0.12 % ID/g
Organ distribution: small intestines [1]: 0.94 % ID/g
Organ distribution: spleen [1]: 0.23 % ID/g
Organ distribution: stomach [1]: 0.33 % ID/g
Organ distribution: tail [1]: 1.82 % ID/g
Organ distribution: thyroids [1]: 0.10 % ID/g
Organ distribution: urine [1]: 517.19 % ID/g
Organ distribution: bladder [2]: 9.00 % ID/g
Organ distribution: blood [2]: 0.54 % ID/g
Organ distribution: bone (femur + joint) [2]: 0.70 % ID/g
Organ distribution: brain [2]: 0.23 % ID/g
Organ distribution: feces [2]: 0.69 % ID/g
Organ distribution: heart [2]: 0.23 % ID/g
Organ distribution: kidneys [2]: 17.38 % ID/g
Organ distribution: large intestines [2]: 0.79 % ID/g
Organ distribution: liver [2]: 1.08 % ID/g
Organ distribution: lungs [2]: 0.84 % ID/g
Organ distribution: pancreas [2]: 0.43 % ID/g
Organ distribution: small intestines [2]: 1.62 % ID/g
Organ distribution: spleen [2]: 0.48 % ID/g
Organ distribution: stomach [2]: 0.17 % ID/g
Organ distribution: tail [2]: 2.57 % ID/g
Organ distribution: thyroids [2]: 8.34 % ID/g
Organ distribution: urine [2]: 641.63 % ID/g
Organ distribution: bladder [3]: 4.25 % ID/g
Organ distribution: blood [3]: 0.01 % ID/g
Organ distribution: bone (femur + joint) [3]: 0.05 % ID/g
Organ distribution: brain [3]: 0.02 % ID/g
Organ distribution: feces [3]: 3.46 % ID/g
Organ distribution: heart [3]: 0.10 % ID/g
Organ distribution: kidneys [3]: 0.74 % ID/g
Organ distribution: large intestines [3]: 0.49 % ID/g
Organ distribution: liver [3]: 0.39 % ID/g
Organ distribution: lungs [3]: 0.01 % ID/g
Organ distribution: pancreas [3]: 0.10 % ID/g
Organ distribution: small intestines [3]: 0.29 % ID/g
Organ distribution: spleen [3]: 0.11 % ID/g
Organ distribution: stomach [3]: 0.01 % ID/g
Organ distribution: tail [3]: 0.14 % ID/g
Organ distribution: thyroids [3]: 0.10 % ID/g
Organ distribution: urine [3]: 12.78 % ID/g
Organ distribution: bladder [4]: 3.69 % ID/g
Organ distribution: blood [4]: 0.00 % ID/g
Organ distribution: bone (femur + joint) [4]: 0.02 % ID/g
Organ distribution: brain [4]: −0.01 % ID/g
Organ distribution: feces [4]: 3.49 % ID/g
Organ distribution: heart [4]: −0.04 % ID/g
Organ distribution: kidneys [4]: 0.78 % ID/g
Organ distribution: large intestines [4]: 0.45 % ID/g
Organ distribution: liver [4]: 0.36 % ID/g
Organ distribution: lungs [4]: −0.05 % ID/g
Organ distribution: pancreas [4]: −0.12 % ID/g
Organ distribution: small intestines [4]: 0.29 % ID/g
Organ distribution: spleen [4]: 0.09 % ID/g
Organ distribution: stomach [4]: 0.04 % ID/g
Organ distribution: tail [4]: 0.13 % ID/g
Organ distribution: thyroids [4]: −6.94 % ID/g
Organ distribution: urine [4]: 13.51 % ID/g
Organ distribution: bladder [5]: 8.52 % ID/g
Organ distribution: blood [5]: 0.04 % ID/g
Organ distribution: bone (femur + joint) [5]: 0.08 % ID/g
Organ distribution: brain [5]: −0.01 % ID/g
Organ distribution: feces [5]: 5.27 % ID/g
Organ distribution: heart [5]: 0.28 % ID/g
Organ distribution: kidneys [5]: 1.07 % ID/g
Organ distribution: large intestines [5]: 0.68 % ID/g
Organ distribution: liver [5]: 0.55 % ID/g
Organ distribution: lungs [5]: 0.15 % ID/g
Organ distribution: pancreas [5]: 0.13 % ID/g
Organ distribution: small intestines [5]: 0.42 % ID/g
Organ distribution: spleen [5]: 0.43 % ID/g
Organ distribution: stomach [5]: 0.13 % ID/g
Organ distribution: tail [5]: 0.28 % ID/g
Organ distribution: thyroids [5]: 19.89 % ID/g
Organ distribution: urine [5]: 22.27 % ID/g
blood clearance and excretion (in words) [6]: rapidly cleared from mice
organ accumulation (in words) [6]: did not accumulate in any organ
